For test [1], the system named is VEGF165-induced proliferation of HUVEC. The experiment in a line: Inhibition of VEGF165-stimulated HUVEC proliferation. In kind it is cell-based, human. The procedure:
FIG. 6. GST-Ex 7+8 fusion protein inhibits VEGF165-stimulated HUVEC proliferation. HUVEC were cultured in 96-well dishes (5,000 cell/well) as in FIG. 2. Increasing concentrations of VEGF165 (open circles), together with 15 ug/ml GST-Ex 7+8 (closed circles) or 25 ug/ml GST (squares), were added to the medium, and the cells were incubated for 4 more days. DNA synthesis was measured in HUVEC as described in FIG. 2. The results represent the average counts of three wells, and the standard deviations were determined.
(§1) FIG. 7. GST-Ex 7+8 fusion protein inhibits VEGF165 and VEGF121-stimulated HUVEC proliferation. Increasing concentration of VEGF165 (circles) or VEGF121 (square) with 15 ug/ml GST-Ex 7+8 (closed symbols) or without GST-Ex 7+8 (open symbols) were added to HUVEC, and [*H]thymidine incorporation into the DNA was measured as in FIG. 2. The results represent the average counts of three wells and the standard deviations were determined.
(§2) HUVEC were seeded in gelatin-coated 96-well dishes at 4,000 cells/200 Ul/well in M-199 containing 5% FCS and GPS. After 24 H, VEGF isoforms and VEGF exon 7-GST fusion proteins were added to the wells at the same time. The cells were incubated for 72 h, and [3H]thymidine (1 pC/ml) was added for 10-12 h. The medium was aspirated, and the cells were trypsinized and harvested by an automatic cell harvester (TOMTEC) and loaded onto Filtermats (Wallac). The Filtermats were scanned and cpm were determined by a MicroBeta counter (Wallac). The results represent the average of samples assayed in triplicate, and the standard derivations were determined. All experiments were repeated at least three times and similar results were obtained.

Test [2] deals with T1, VEGF165R on 231 cells (Homo sapiens, UniProt O14786).
T1 construct: to 231 cells which express only VEGF165R; endogenous in cells; host or cells: MDA-MB-231 (ATCC)
T1 sequence (O14786 22-923): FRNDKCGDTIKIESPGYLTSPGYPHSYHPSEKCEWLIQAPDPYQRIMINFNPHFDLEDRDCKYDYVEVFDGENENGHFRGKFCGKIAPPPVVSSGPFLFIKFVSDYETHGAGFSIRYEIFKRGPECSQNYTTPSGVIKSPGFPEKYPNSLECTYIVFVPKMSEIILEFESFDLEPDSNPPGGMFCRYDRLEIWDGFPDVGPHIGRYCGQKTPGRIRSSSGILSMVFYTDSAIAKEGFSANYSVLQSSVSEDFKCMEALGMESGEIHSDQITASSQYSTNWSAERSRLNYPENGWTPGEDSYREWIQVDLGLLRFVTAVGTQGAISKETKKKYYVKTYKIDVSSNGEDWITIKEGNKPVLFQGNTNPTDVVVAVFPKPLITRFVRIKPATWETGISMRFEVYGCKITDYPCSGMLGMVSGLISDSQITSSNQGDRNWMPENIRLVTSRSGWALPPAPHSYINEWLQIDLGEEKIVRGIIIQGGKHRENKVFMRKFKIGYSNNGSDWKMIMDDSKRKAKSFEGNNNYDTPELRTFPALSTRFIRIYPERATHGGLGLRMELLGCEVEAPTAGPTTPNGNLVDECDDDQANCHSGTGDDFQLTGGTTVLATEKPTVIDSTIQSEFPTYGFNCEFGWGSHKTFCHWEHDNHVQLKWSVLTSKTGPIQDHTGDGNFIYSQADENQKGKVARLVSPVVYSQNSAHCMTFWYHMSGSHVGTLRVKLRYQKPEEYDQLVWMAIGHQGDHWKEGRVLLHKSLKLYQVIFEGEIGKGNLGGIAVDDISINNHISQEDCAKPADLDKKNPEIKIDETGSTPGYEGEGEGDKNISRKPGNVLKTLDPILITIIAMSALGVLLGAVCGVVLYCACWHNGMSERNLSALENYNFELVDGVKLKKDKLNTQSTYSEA
The experiment in a line: Inhibition of 125I-VEGF165 binding to MDA-MB-231 (231) cells. How it is done: (§3) FIGS. 3A-3C. Inhibition of ^125I-VEGF165 binding to HUVEC, MDA MB 231 cells, and PAE-KDR cells by GST-EX 7+8. ^125I-VEGF165 (5 ng,/ml) was bound to subconfluent cultures of HUVEC (3A), MDA MB 23 1 cells (3B), and PAE-KDR cells (3C) in 48-well dishes in the presence of increasing amounts of GST-Ex 7+8 (closed 20 square) or control GST protein (open squares). At the end of a 2-h incubation, the cells were washed and lysed, and the cell-associated radioactivity was determined with a γ-counter. The counts obtained are expressed as the percentage of the counts obtained in the presence of PBS without addition of GST or fusion protein.
(§4) Binding and cross-linking experiments using 125I-VEGF165 and 125I-VEGF121 were performed at described previously (Gitay-Goren, et al., J. Biol. Chem., 287, 6003-6096 (1992), Soker, et al., J: Biol. Chem., 271,5761-5767 (1996)). VEGF binding was quantified by measuring the cell-associated radioactivity in a y-counter (Beckman, Gamma 5500). The counts represent the average of three walls. All experiments were repeated at least three times, and similar results were obtained. 125I-VEGF cross-linked complexes were resolved by 6% SDS-PAGE, and the gels were exposed to a phosphor screen and scanned after 24 h by a PhosphorImager (Molecular Dynamics). Subsequently, the gels were exposed to x-ray film.

Test [3] concerns the target T2, KDR/Flk-1 and VEGF165R on HUVEC (Homo sapiens, UniProt O14786).
T2 construct: HUVEC, which express both KDR/Flk-1 and VEGF165R; endogenous in cells; host or cells: HUVEC (ATCC)
The experiment in a line: Inhibition of 125I-VEGF165 binding to HUVEC. Particulars: 125I-VEGF165 5 ng/ml, increasing concentrations of fusion protein, FIG. 3A. The procedure:
as §3
FIGS. 5A and 5B. Localization of a core inhibitory region within exon 7. GST-Ex 7 fusion proteins containing full-length exon 7-encoded domain or truncations at the N-terminal and C-terminal ends were prepared as described in the Examples. ^125I-VEGF165 (5 ng/ml) was bound to subconfluent HUVEC cultures as described in FIG. 3, in the presence of increasing concentrations of the GST fusion proteins. At the end of a 2-h incubation, the cells were washed and lysed, and the cell-associated radioactivity was determined with a y counter. The counts obtained are expressed as percentage of the counts obtained in the presence of PBS without fusion protein B, the amino acid sequences of VEGF exon 7 derivatives. These derivatives were prepared to contain the first cysteine residue of exon 8 at their C termini to keep an even number of cysteine residue. FIG. 5B discloses SEQ ID NO: 19.
as §4

Test [4] concerns the target VEGF165R (Homo sapiens, UniProt O14786). The experiment in a line: Cross-linking of 125I-VEGF165 to VEGF165R on 231 cells. In kind it is binding. Details: to 231 cells which express only VEGF165R; endogenous in cells; host or cells: MDA-MB-231 (ATCC). The note with it: 15 ug/ml fusion protein, FIG. 4 lane 4. The procedure:
FIG. 4. GST-EX 7+8 fusion protein inhibits cross-linking of ^125I-VEGF165 to ^125I-VEGF165R and to KDR/Flk-1. ^125I-VEGF165 (5 ng/ml) was bound to subconfluent cultures of HUVEC (lanes 1 and 2) and MDA-MB-23 1 cells (lanes 3 and 4) in 6-cm dishes. The binding was carried out in the presence (lanes 2 and 4) or the absence (lanes 1 and 3) of 15 ug/ml GST-Ex 7+8. Heparin (1 ug/ml) was added to each dish. At the end of a 2-h incubation, ^125I-VEGF165 was chemically cross-linked to the cell surface. The cells were lysed, and proteins were resolved by 6% SDS-PAGE. The gel was dried and exposed to x-ray film.
as §4

The subject of test [5] is VEGF121-induced proliferation of HUVEC. The experiment in a line: Inhibition of VEGF121-stimulated HUVEC proliferation. The class given is cell-based, human. The procedure:
as §1, §2

Where no end group is shown, it is not given here.

Sequence of VEGF165R (O14786 22-923): as above
T2 sequence (O14786 22-923): as above

On to “GST-Ex 7+8: GST fusion protein containing the peptide encoded by VEGF165 exons 7 and 8 (PCGPCSERRKHLFVQDPQTCKCSCKNTDSRCKARQLELNERTCRCDKPRR; cysteine pairing not given here; also: GST fusion protein, side of fusion not given here)”, for which the “reduction of VEGF165-induced HUVEC proliferation” value in test [1] (15 ug/ml fusion protein added with VEGF165, FIG. 6) is “about 60%”. In test [1] (FIG. 7, 15 ug/ml), the “inhibition of the level of VEGF165-induced mitogenicity” value was “about 2 fold”. Also, the “inhibition of 125I-VEGF165 binding to 231 cells” value in test [2] (125I-VEGF165 5 ng/ml, increasing concentrations of fusion protein, FIG. 3B) is given as 97-98%. For the same substance, the “VEGF165 binding to 231 breast cancer cells (in words)” value in test [2] (cells express VEGF165R and not KDR/Flk-1) is “inhibits”. The “inhibition of 125I-VEGF165 binding to HUVEC” value in test [3] was 85-95%. Also, in test [4], the “formation of 125I-VEGF165/VEGF165R cross-linked complexes on 231 cells (in words)” value was “markedly inhibited”. Besides, the “inhibition of the mitogenic activity of VEGF121 for HUVEC” value in test [5] is “about 50%”. For the same substance, the “inhibition of VEGF125-mediated HUVEC proliferation” value in test [5] (15 ug/ml, FIG. 7) is given as “about 2 fold”.

Source of the values: patent US8889620B2, “Pharmaceutical compositions comprising peptide antagonists of vascular endothelial growth factor” (Children's Medical Center Corporation, priority 1997, dated 2014).
